Experimental data published in ChEMBL document CHEMBL1149998, “Tannins as selective inhibitors of protein kinase C” (Bioorg Med Chem Lett, 1992).

Assays:
[1] = target: Protein kinase C, PKC; classical/novel (Homo sapiens) (UniProt O94806+P17252+P05129+Q05655+P05771+Q02156+P24723+Q15139+Q04759); test: Displacement of phorbol [3H]PDBu from protein kinase C; A - Did displace phorbol (PDBu) at 50 uM or less; format: protein assay
Protein kinase C (PKC) = test: Inhibitory activity against protein kinase C (PKC); format: protein assay, Homo sapiens
[2] = Inhibition of c-AMP kinase PKA; parameters: species or system Bos taurus
[3] = Inhibitory activity against c-AMP kinase; Did not inhibit c-AMP kinase

Row | Phorbol displacement [1] | IC50 (Protein kinase C (PKC)) | IC50 [2] | IC50 [3] | Compound
1 | < 50 µM | 11 µM | 84 µM | – | O=C(OC1COC(=O)c2cc(O)c(O)c(O)c2-c2c(cc(O)c(O)c2O)C(=O)OC1C1OC(=O)c2cc(O)c(O)c(O)c2-c2c(O)c(O)c(O)c3c2C(=O)OC1[C@@H]3O)c1cc(O)c(O)c(O)c1 (stereo partly specified)
2 | < 50 µM | 7 µM | 95 µM | – | O=C1OCC2OC(=O)c3cc(O)c(O)c(O)c3-c3c(O)c(O)c(O)c4c3C(=O)OC(C2OC(=O)c2cc(O)c(O)c(O)c2-c2c1cc(O)c(O)c2O)C1OC(=O)c2c-4c(O)c(O)c(O)c2[C@@H]1c1c(O)cc(O)c2c1O[C@H](c1ccc(O)c(O)c1)[C@@H](O)C2 (stereo partly specified)
3 | < 50 µM | 16 µM | 65 µM | – | O=C1O[C@H]2[C@@H]3OC(=O)c4cc(O)c(O)c(O)c4-c4c(cc(Oc5c(C(=O)O)cc(O)c(O)c5O)c(O)c4O)C(=O)OC[C@H]2O[C@@H](OC(=O)c2cc(O)c(O)c(O)c2)[C@@H]3OC(=O)c2cc(O)c(O)c3c2C2C1=CC(=O)C(O)(O)C2(O)O3 (stereo partly specified) [E181]
4 | < 50 µM | 4 µM | 44 µM | – | O=C1OCC2OC(=O)c3cc(O)c(O)c(O)c3-c3c(O)c(O)c(O)c4c3C(=O)OC(C2OC(=O)c2cc(O)c(O)c(O)c2-c2c1cc(O)c(O)c2O)C1OC(=O)C2C4=C(O)C(=O)C23Oc2cc(O)c4c(c2[C@H]13)O[C@H](c1ccc(O)c(O)c1)[C@@H](O)C4 (stereo partly specified)
5 | < 50 µM | 4 µM | – | Not Active | O=C(O[C@@H]1[C@@H](c2c(O)cc(O)c3c2O[C@H](c2ccc(O)c(O)c2)[C@H](OC(=O)c2cc(O)c(O)c(O)c2)C3)c2c(O)cc(O)cc2O[C@@H]1c1ccc(O)c(O)c1)c1cc(O)c(O)c(O)c1
6 | < 50 µM | 10 µM | 22 µM | – | O=C(O[C@@H]1O[C@H]2COC(=O)c3cc(O)c(O)c(O)c3-c3c(cc(O)c(O)c3O)C(=O)O[C@H]2[C@@H]2OC(=O)c3cc(O)c(O)c(O)c3-c3c(cc(O)c(O)c3O)C(=O)O[C@H]12)c1cc(O)c(O)c(Oc2c(O)c(O)c(O)c3c2C(=O)O[C@H]2[C@@H]4OC(=O)c5cc(O)c(O)c(O)c5-c5c(cc(O)c(O)c5O)C(=O)O[C@@H]4[C@H](OC(=O)c4cc(O)c(O)c(Oc5c(O)c(O)c(O)c6c5C(=O)O[C@H]5[C@@H]7OC(=O)c8cc(O)c(O)c(O)c8-c8c(cc(O)c(O)c8O)C(=O)O[C@@H]7[C@H](OC(=O)c7cc(O)c(O)c(Oc8c(O)c(O)c(O)c9c8C(=O)O[C@H]8[C@@H]%10OC(=O)c%11cc(O)c(O)c(O)c%11-c%11c(cc(O)c(O)c%11O)C(=O)O[C@@H]%10[C@H](OC(=O)c%10cc(O)c(O)c(O)c%10)O[C@H]8COC(=O)c8cc(O)c(O)c(O)c8-9)c7)O[C@H]5COC(=O)c5cc(O)c(O)c(O)c5-6)c4)O[C@H]2COC(=O)c2cc(O)c(O)c(O)c2-3)c1
7 | < 50 µM | 16 µM | – | Not Active | O=C1O[C@H]2[C@H](OC(=O)c3cc(O)c(O)c(O)c3)[C@@H](OC(=O)c3cc(O)c(O)c4c3C3C1=CC(=O)C(O)(O)C3(O)O4)[C@@H](OC(=O)c1cc(O)c(O)c(O)c1)O[C@@H]2COC(=O)c1cc(O)c(O)c(O)c1 (stereo partly specified)
8 | < 50 µM | 3 µM | 32 µM | – | O=C(OC[C@@H]1O[C@@H](OC(=O)c2cc(O)c(O)c(O)c2)[C@@H](OC(=O)c2cc(O)c(O)c(O)c2)[C@@H](OC(=O)c2cc(O)c(O)c(O)c2)[C@@H]1OC(=O)c1cc(O)c(O)c(O)c1Oc1cc2c(c(O)c1O)-c1c(cc(O)c(O)c1O)C(=O)OC[C@@H]1O[C@@H](OC(=O)c3cc(O)c(O)c(O)c3)[C@@H](OC(=O)c3cc(O)c(O)c(O)c3)[C@@H](OC(=O)c3cc(O)c(O)c(O)c3)[C@@H]1OC2=O)c1cc(O)c(O)c(O)c1
9 | < 50 µM | 5 µM | 48 µM | – | O=C(O[C@@H]1O[C@H]2COC(=O)c3cc(O)c(O)c(O)c3-c3c(cc(O)c(O)c3O)C(=O)O[C@H]2[C@@H]2OC(=O)c3cc(O)c(O)c(O)c3-c3c(cc(O)c(O)c3O)C(=O)O[C@H]12)c1cc(O)c(O)c(Oc2c(O)c(O)c(O)c3c2C(=O)O[C@H]2[C@@H]4OC(=O)c5cc(O)c(O)c(O)c5-c5c(cc(O)c(O)c5O)C(=O)O[C@@H]4[C@H](OC(=O)c4cc(O)c(O)c(O)c4)O[C@H]2COC(=O)c2cc(O)c(O)c(O)c2-3)c1
10 | < 50 µM | 15 µM | – | Not Active | Oc1cc(O)c2c(c1)O[C@H](c1ccc(O)c(O)c1)[C@H](O)[C@H]2c1c(O)cc(O)c2c1O[C@@]1(c3ccc(O)c(O)c3)Oc3cc(O)c4c(c3C2[C@H]1O)O[C@H](c1ccc(O)c(O)c1)[C@H](O)C4c1c(O)cc(O)c2c1O[C@H](c1ccc(O)c(O)c1)[C@H](O)C2 (stereo partly specified)
11 | < 50 µM | 4 µM | – | Not Active | O=C1OCC2OC(=O)c3cc(O)c(O)c(O)c3-c3c(O)c(O)c(O)c4c3C(=O)OC(C2OC(=O)c2cc(O)c(O)c(O)c2-c2c1cc(O)c(O)c2O)C1OC(=O)c2c-4c(O)c(O)c(O)c2[C@@H]1O (stereo partly specified)
12 | < 50 µM | 30 µM | – | Not Active | Oc1cc(O)c2c(c1)O[C@@]1(c3ccc(O)c(O)c3)Oc3cc(O)c4c(c3C2[C@H]1O)O[C@H](c1ccc(O)c(O)c1)[C@H](O)C4c1c(O)cc(O)c2c1O[C@H](c1ccc(O)c(O)c1)[C@H](O)C2 (stereo partly specified)
13 | < 50 µM | 23 µM | – | Not Active | CC1(C)CC[C@]2(C(=O)O)CC[C@]3(C)C(=CCC4[C@@]5(C)C[C@@H](O)[C@@H]6OC(=O)c7cc(O)c(O)c(O)c7-c7c(cc(O)c(O)c7O)C(=O)OC[C@@]6(CO)C5CC[C@]43C)C2C1 (stereo partly specified)
14 | < 50 µM | 12 µM | – | Not Active | O=C1OCC2OC(=O)c3cc(O)c(O)c(O)c3-c3c(O)c(O)c(O)c4c3C(=O)OC(C2OC(=O)c2cc(O)c(O)c(O)c2-c2c1cc(O)c(O)c2O)C1OC(=O)c2c-4c(O)c(O)c(O)c2[C@@H]1[C@@]1(O)O[C@@H](CO)[C@@H](O)[C@H]1O (stereo partly specified)
15 | < 50 µM | 20 µM | 100 µM | – | O=C(O[C@@H]1O[C@@H]2COC(=O)c3cc(Oc4c(C(=O)O)cc(O)c(O)c4O)c(O)c(O)c3-c3c(cc(O)c(O)c3O)C(=O)O[C@H]([C@H]1O)[C@@H]2O)c1cc(O)c(O)c(O)c1
16 | < 50 µM | 17 µM | – | Not Active | C=C1O[C@H]2[C@@H]3OC(=O)c4cc(O)c(O)c(O)c4-c4c(cc(O)c(O)c4O)C(=O)OC[C@H]2O[C@@H](OC(=O)c2cc(O)c(O)c(O)c2)[C@@H]3OC(=O)c2cc(O)c(O)c3c2C2C(O)(O3)C3(O)OC4(C(=O)OC5C(O)COC54O)C12CC3=O (stereo partly specified)
17 | < 50 µM | 18 µM | – | Not Active | CC1(C)CC[C@]2(C(=O)O[C@@H]3O[C@H](CO)[C@@H](O)[C@H](O)[C@H]3O)CC[C@]3(C)C(=CC[C@@H]4[C@@]5(C)C[C@@H](O)[C@@H]6OC(=O)c7cc(O)c(O)c(O)c7-c7c(cc(O)c(O)c7O)C(=O)OC[C@@]6(CO)C5CC[C@]43C)C2C1 (stereo partly specified)
